In PubChem BioAssay (NCI):
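Compound exposure: 48 hours, 5 concentrations, 96-well plates. The concentration for 50% growth inhibition is given as GI50. TGI denotes the concentration required for complete inhibition of growth.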

Experiments:
Experiment in all cases: NCI tumour cell line growth inhibition, 48 h; in the data active = GI50 below about 0.43 µM; inactive = the rest
[1] = test system: 786-0 renal
[2] = test system: A498 renal
[3] = test system: A549 NSCLC
[4] = test system: ACHN renal
[5] = test system: BT-549 breast
[6] = test system: CAKI-1 renal
[7] = test system: CCRF-CEM leukemia
[8] = test system: COLO 205 colon
[9] = test system: DU-145 prostate
[10] = test system: EKVX NSCLC
[11] = test system: HCC-2998 colon
[12] = test system: HCT-116 colon
[13] = test system: HCT-15 colon
[14] = test system: HL-60(TB) leukemia
[15] = test system: HOP-62 NSCLC
[16] = test system: HOP-92 NSCLC
[17] = test system: HS 578T breast
[18] = test system: HT29 colon
[19] = test system: IGROV1 ovarian
[20] = test system: K-562 leukemia
[21] = test system: KM12 colon
[22] = test system: LOX IMVI melanoma
[23] = test system: M14 melanoma
[24] = test system: MALME-3M melanoma
[25] = test system: MCF7 breast
[26] = test system: MDA-MB-231 breast
[27] = test system: MDA-MB-435
[28] = test system: MOLT-4 leukemia
[29] = test system: NCI-H226 lung
[30] = test system: NCI-H23 lung
[31] = test system: NCI-H460 lung
[32] = test system: NCI-H522 lung
[33] = test system: NCI/ADR-RES ovarian
[34] = test system: OVCAR-3 ovarian
[35] = test system: OVCAR-4 ovarian
[36] = test system: OVCAR-5 ovarian
[37] = test system: OVCAR-8 ovarian
[38] = test system: PC-3 prostate
[39] = test system: RPMI-8226 leukemia
[40] = test system: RXF 393 renal
[41] = test system: SF-268 CNS
[42] = test system: SF-295 CNS
[43] = test system: SF-539 CNS
[44] = test system: SK-MEL-2 melanoma
[45] = test system: SK-MEL-28 melanoma
[46] = test system: SK-MEL-5 melanoma
[47] = test system: SK-OV-3 ovarian
[48] = test system: SN12C renal
[49] = test system: SNB-19 CNS
[50] = test system: SNB-75 CNS
[51] = test system: SR leukemia
[52] = test system: SW-620 colon
[53] = test system: T-47D breast
[54] = test system: TK-10 renal
[55] = test system: U251 CNS
[56] = test system: UACC-257 melanoma
[57] = test system: UACC-62 melanoma
[58] = test system: UO-31 renal

C#COc1cccc(Nc2ncnc3ncc(NC(=O)CCl)cc23)c1
active: GI50 [12] 0.239 µM
> 62.5 µM: TGI [1] | TGI [2] | TGI [3] | TGI [4] | TGI [5] | TGI [6] | TGI [7] | TGI [8] | TGI [9] | TGI [10] | TGI [11] | TGI [12] | TGI [13] | TGI [15] | TGI [16] | TGI [17] | TGI [18] | TGI [20] | TGI [21] | TGI [23] | TGI [25] | TGI [26] | TGI [27] | TGI [28] | TGI [29] | TGI [30] | TGI [31] | TGI [33] | TGI [34] | TGI [35] | TGI [36] | TGI [37] | TGI [38] | TGI [39] | TGI [40] | TGI [41] | TGI [42] | TGI [44] | TGI [45] | TGI [46] | TGI [47] | TGI [48] | TGI [49] | TGI [50] | TGI [51] | TGI [52] | TGI [53] | TGI [54] | TGI [56] | TGI [57]
> 34.5 µM: TGI [55]
inactive: GI50 [1] 2.71 µM | GI50 [2] > 62.5 µM | GI50 [3] > 13.8 µM | GI50 [5] > 62.5 µM | GI50 [6] > 15.2 µM | GI50 [8] > 26.8 µM | GI50 [9] > 26.4 µM | GI50 [10] > 62.5 µM | GI50 [11] > 62.5 µM | GI50 [13] > 14 µM | GI50 [14] > 21.2 µM | GI50 [15] > 62.5 µM | GI50 [16] > 62.5 µM | GI50 [17] > 62.5 µM | GI50 [21] > 28.4 µM | GI50 [23] 50.5 µM | GI50 [24] > 23.7 µM | GI50 [25] > 16.6 µM | GI50 [26] > 27.3 µM | GI50 [27] > 49.8 µM | GI50 [29] > 62.5 µM | GI50 [30] > 62.5 µM | GI50 [32] > 17.9 µM | GI50 [33] > 24.7 µM | GI50 [34] > 25 µM | GI50 [35] > 62.5 µM | GI50 [36] > 47.4 µM | GI50 [37] > 14.5 µM | GI50 [38] > 36.7 µM | GI50 [39] > 19.8 µM | GI50 [40] > 62.5 µM | GI50 [41] > 22.3 µM | GI50 [42] > 52.9 µM | GI50 [43] > 21.8 µM | GI50 [44] > 57.7 µM | GI50 [45] > 59.6 µM | GI50 [46] > 51.2 µM | GI50 [47] > 62.5 µM | GI50 [49] > 43.3 µM | GI50 [50] > 60.1 µM | GI50 [53] > 62.5 µM | GI50 [54] 62 µM | GI50 [55] > 13.3 µM | GI50 [56] > 62.5 µM | GI50 [57] > 36.1 µM | GI50 [58] > 14 µM
> 28 µM: TGI [22]
> 33.2 µM: TGI [58]
> 53.2 µM: TGI [43]
> 29.9 µM: TGI [32]
> 45 µM: TGI [14]
> 26.1 µM: TGI [19]
> 38 µM: TGI [24]

C#CCNC(=O)CC[C@]1(C)[C@H]2CC[C@@H]3[C@@H]([C@@](C)(O)CCC=C(C)C)CC[C@@]3(C)[C@]2(C)CC[C@H]1C(=C)C
> 100 µM: TGI [2] | TGI [3] | TGI [4] | TGI [5] | TGI [8] | TGI [9] | TGI [10] | TGI [11] | TGI [15] | TGI [17] | TGI [21] | TGI [23] | TGI [25] | TGI [27] | TGI [30] | TGI [31] | TGI [33] | TGI [35] | TGI [36] | TGI [37] | TGI [42] | TGI [44] | TGI [46] | TGI [47] | TGI [48] | TGI [49] | TGI [50] | TGI [52] | TGI [53] | TGI [54] | TGI [56] | TGI [57]
43.1 µM: TGI [29]
59.3 µM: TGI [13]
34.2 µM: TGI [16]
49.6 µM: TGI [20]
35.6 µM: TGI [12]
89.9 µM: TGI [34]
25.4 µM: TGI [19]
15.9 µM: TGI [14]
42.9 µM: TGI [18]
81.9 µM: TGI [40]
62.9 µM: TGI [39]
57.1 µM: TGI [41]
35.1 µM: TGI [32]
27.4 µM: TGI [22]
inactive: GI50 [1] 12.2 µM | GI50 [2] > 100 µM | GI50 [3] 42.7 µM | GI50 [4] 25.3 µM | GI50 [5] 29 µM | GI50 [6] 4.25 µM | GI50 [7] 6.77 µM | GI50 [8] 31.9 µM | GI50 [9] 34.8 µM | GI50 [10] 47.9 µM | GI50 [11] 45.8 µM | GI50 [12] 17.8 µM | GI50 [13] 20.8 µM | GI50 [14] 1.19 µM | GI50 [15] 35 µM | GI50 [16] 14.8 µM | GI50 [17] 50.2 µM | GI50 [18] 18.8 µM | GI50 [19] 10.2 µM | GI50 [20] 17.8 µM | GI50 [21] 38.5 µM | GI50 [22] 9.73 µM | GI50 [23] 30.9 µM | GI50 [24] 16.4 µM | GI50 [25] 24.7 µM | GI50 [26] 22.3 µM | GI50 [27] 38.1 µM | GI50 [28] 17 µM | GI50 [29] 18.3 µM | GI50 [30] 27.7 µM | GI50 [31] 31.2 µM | GI50 [32] 15.2 µM | GI50 [33] 40.5 µM | GI50 [34] 31.3 µM | GI50 [35] 43.6 µM | GI50 [36] 51.9 µM | GI50 [37] 31.3 µM | GI50 [38] 17.4 µM | GI50 [39] 20.1 µM | GI50 [40] 26.2 µM | GI50 [41] 22 µM | GI50 [42] 48.4 µM | GI50 [43] 17.2 µM | GI50 [44] 47.1 µM | GI50 [45] 26.9 µM | GI50 [46] 38.8 µM | GI50 [47] > 100 µM | GI50 [48] 31.8 µM | GI50 [49] 56.1 µM | GI50 [50] > 100 µM | GI50 [51] 3.05 µM | GI50 [52] 29.4 µM | GI50 [53] 35 µM | GI50 [54] 43.7 µM | GI50 [55] 20.1 µM | GI50 [56] 68 µM | GI50 [57] 22.5 µM | GI50 [58] 14.1 µM
31.1 µM: TGI [43]
67.5 µM: TGI [26]
80 µM: TGI [45]
35 µM: TGI [24]
17.7 µM: TGI [6]
28.7 µM: TGI [7]
19.2 µM: TGI [51]
49.5 µM: TGI [55]
47.3 µM: TGI [28]
29.1 µM: TGI [58]
30 µM: TGI [1]
70 µM: TGI [38]
